Laboratory results: patent publication US20250127734A1, “ALZ-801 FOR USE IN TREATING A COVID-19 ASSOCIATED NEUROLOGICAL SYMPTOM” (Alzheon, Inc., priority 2022, published 2025)
Where “and” joins values, the source holds several entries; their conditions need not be identical. Identical values can stand only once.

B1: lecanemab: anti-amyloid antibody (antibody, chains of the INN, looked up, V domains shown)
VH: EVQLVESGGGLVQPGGSLRLSCSASGFTFSSFGMHWVRQAPGKGLEWVAYISSGSSTIYYGDTVKGRFTISRDNAKNSLFLQMSSLRAEDTAVYYCAREGGYYYGRSYYTMDYWGQGTTVTVSS
VL: DVVMTQSPLSLPVTPGAPASISCRSSQSIVHSNGNTYLEWYLQKPGQSPKLLIYKVSNRFSGVPDRFSGSGSGTDFTLRISRVEAEDVGIYYCFQGSHVPPTFGPGTKLEIK

Experiments:
[1] = system: plasma p-tau181/Abeta42 ratio; assay: Phase 2 trial in early AD APOE4 carriers: plasma p-tau181/Abeta42 ratio; assay type: in vivo, human; settings: 265 mg BID oral
Protocol: (§1) Evaluation of disease modifying effects from phase 2 trial of ALZ-801 (valiltramiprosate) in subjects with early Alzheimer's disease were conducted. The study enrolled 84 patients, with early AD, who carry the APOE4/4 or APOE3/4 genotype and have an MMSE score ranging from 22 to 30 (CDR-G 0.5 or 1). Each patient received 265 mg ALZ-801 twice daily. The average MMSE score of the subjects was 26 (mean age 69 years, 52% female). Subjects were either amyloid PET positive or A+/T+ on CSF assays. CSF criteria were: Ratio of Aβ42/40×10≤0.61, and p-tau181≥61 pg/ml. CSF was evaluated at 52 weeks, and plasma biomarkers at every visit.
(§2) All fluid biomarker analyses were performed at the Neurochemistry Laboratory of Dr. Blennow (Molndal, Sweden), and were blinded to subject's demographics or genotype. CSF biomarker assays were analyzed using Lumipulse (Fujirebio) and plasma assays utilized Simoa assays. Cognitive tests include the Rey Auditory Verbal Learning Test (RAVLT: immediate, delayed and recognition memory) and Digit Symbol Substitution Tests (DSST), and a composite Z-score is calculated (3-item RAVLT+DSST). Change from baseline (CBL) analyses were performed on the mITT population and included all observed data, using paired t-tests and 2-sided p-values. The primary biomarker outcome was p-tau181.
(§3) Of the 84 APOE4 carrier that were enrolled and received ALZ-801, 80 and 75 subjects completed 26 and 52 weeks respectively. […] This is much greater than the annualized ˜12% reduction in plasma p-tauisi observed in the recent human clinical trials of the anti-amyloid antibody lecanemab (van Dyck, C H et al., N Engl J Med 2023; 388: 9-21, DOI: 10.1056/NEJMoa2212948).

[2] = Phase 2 trial in early AD APOE4 carriers: brain volumes (hippocampal, ventricular; MRI) vs matched ADNI cohort; assay type: in vivo, human
Protocol: as §1
Unlike anti-amyloid antibodies, such as Lecanemab, ALZ-801 treatment over 52 weeks also appeared to show an ˜15% reduction in ventricular volume expansion as measured by MRI (p=0.08).

plasma Abeta40 = assay: Phase 2 trial in early AD APOE4 carriers: plasma Abeta40; assay type: in vivo, human; settings: 52 weeks; 265 mg BID oral; p=0.002
Protocol: as §1
as §2, with “p-tau181. […]” for “p-tau181.”

plasma p-tau181 = assay: Phase 2 trial in early AD APOE4 carriers: plasma p-tau181 (Simoa); assay type: in vivo, human; settings: 265 mg BID oral, APOE4/4 or APOE3/4, change from baseline
Protocol: as §1, §2, §3

plasma Abeta42 = assay: Phase 2 trial in early AD APOE4 carriers: plasma Abeta42; assay type: in vivo, human; settings: 52 weeks; 265 mg BID oral; p=0.005
Protocol: as §1
as §2, with “p-tau181. […]” for “p-tau181.”

[3] = cited from earlier work

| Molecule | reduction in plasma p-tau181/Abeta42 ratio ([1]; 13 weeks, p=0.011) [%] | reduction in plasma p-tau181/Abeta42 ratio ([1]; 26 weeks, p=0.011) [%] | reduction in plasma p-tau181/Abeta42 ratio ([1]; 52 weeks, p=0.032) | annualized reduction in atrophy of hippocampal volume ([2]; compared to a well-matched ADNI cohort, p=0.05) [%] | reduction in ventricular volume expansion ([2]; over 52 weeks, measured by MRI, p=0.08) [%] | reduction in plasma Abeta40 (plasma Abeta40) [%] | reduction in plasma p-tau181 (plasma p-tau181; 13 weeks, p=0.014) [%] | reduction in plasma p-tau181 (plasma p-tau181; 26 weeks, p=0.014) [%] | reduction in plasma p-tau181 (plasma p-tau181; 52 weeks, p=0.016) [%] | reduction in plasma Abeta42 (plasma Abeta42) [%] | annualized reduction in hippocampal volume atrophy, result in words ([3]; Van Dyck, 2022) | annualized reduction in plasma p-tau181 ([3]; recent human clinical trials of lecanemab, van Dyck et al. N Engl J Med 2023) [%] |
| --- | --- | --- | --- | --- | --- | --- | --- | --- | --- | --- | --- | --- |
| CC(C)[C@H](N)C(=O)NCCCS(=O)(=O)O [ALZ-801, valyl-3-amino-1-propanesulfonic acid] | 21 | 30 | 37% and 31% | ~20 | ~15 | 5 | 18 | 29 | 41 | 5 | – | – |
| B1 | – | – | – | – | – | – | – | – | – | – | did not demonstrate any significant annualized reduction | ~12 |
